Measurements from ChEMBL document CHEMBL4177601, “Dual antioxidant structures with potent anti-inflammatory, hypolipidemic and cytoprotective properties” (Bioorg Med Chem Lett, 2017).
Activity calls are given as the source filed them. No cut-off for these calls is given here.

Tests used:
Lipoxygenase = Lipoxygenase (Glycine max, UniProt Q39829); assay: Inhibition of soybean lipoxygenase using sodium linoleate as substrate measured after 7 mins
Rattus norvegicus [1] = assay: Anti-inflammatory activity in rat assessed as reduction in carrageenan-induced hind paw oedema at 0.15 mmol/kg, ip pretreated for 5 mins followed by carrageenan challenge measured after 3.5 hrs; assay type: functional; parameters: scale not given: the % may be the effect or the level left
Liver [2] = assay: Antioxidant activity in rat hepatic microsomes assessed as inhibition of FeSO4-induced lipid peroxidation measured after 45 mins by spectrophotometry; assay type: functional, microsome; details: 0.75 h
[3] = Antioxidant activity assessed as DPPH radical scavenging activity at 50 uM measured after 30 mins relative to control; assay type: functional
[4] = Antioxidant activity assessed as DPPH radical scavenging activity at 200 uM measured after 30 mins relative to control; assay type: functional
[5] = Antioxidant activity assessed as DPPH radical scavenging activity at 100 uM measured after 30 mins relative to control; assay type: functional
Rattus norvegicus [6] = assay: Hypolipidemic activity in triton WR1339-induced rat model of hyperlipidemia assessed as reduction in plasma total triglyceride level at 150 umol/kg, ip administered after 1 hr post triton WR1339 challenge measured after 24 hrs relative to control; assay type: functional; parameters: scale not given: the % may be the effect or the level left
Rattus norvegicus [7] = assay: Protection against paracetamol-induced liver injury in rat assessed as reduction in plasma LDH level at 1 mmol/kg, po measured at 24 hrs post paracetamol challenge relative to control; assay type: functional; parameters: scale not given: the % may be the effect or the level left
Liver [8] = assay: Potency index, ratio of trolox IC50 to test compound IC50 for inhibition FeSO4-induced lipid peroxidation in rat hepatic microsomes; assay type: functional; details: microsome
Rattus norvegicus [9] = assay: Hypolipidemic activity in triton WR1339-induced rat model of hyperlipidemia assessed as reduction in plasma total cholesterol level at 150 umol/kg, ip administered after 1 hr post triton WR1339 challenge measured after 24 hrs relative to control; assay type: functional; parameters: scale not given: the % may be the effect or the level left
Rattus norvegicus [10] = assay: Protection against paracetamol-induced liver injury in rat assessed as reduction in plasma GPT level at 1 mmol/kg, po measured at 24 hrs post paracetamol challenge relative to control; assay type: functional; parameters: scale not given: the % may be the effect or the level left
Rattus norvegicus [11] = assay: Protection against paracetamol-induced liver injury in rat assessed as reduction in plasma GOT level at 1 mmol/kg, po measured at 24 hrs post paracetamol challenge relative to control; assay type: functional; parameters: scale not given: the % may be the effect or the level left
[12] = Antioxidant activity assessed as DPPH radical scavenging activity at 25 to 200 uM measured after 30 mins; assay type: functional
Liver [13] = assay: Antioxidant activity in rat hepatic microsomes assessed as inhibition of FeSO4-induced lipid peroxidation at 1 to 1000 uM measured after 45 mins by spectrophotometry; assay type: functional; details: microsome
Mus musculus = assay: Anti-inflammatory activity in Balb/C mouse assessed as reduction in carrageenan-induced hind paw oedema at 0.15 mmol/kg, ip pretreated for 1 hr followed by carrageenan challenge; assay type: functional; parameters: scale not given: the % may be the effect or the level left

## CCOC(=O)C(CS)NC(=O)/C=C/c1cc(C(C)(C)C)c(O)c(C(C)(C)C)c1 (stereo unspecified)
Lipoxygenase
  IC50: 135 µM
Rattus norvegicus [1]
  Activity: 61%
Liver [2]
  IC50: 40 µM
[3]
  Activity: 37%
[4]
  Activity: 96%
[5]
  Activity: 70%

## CC(C)(C)c1cc(C(=O)O)cc(C(C)(C)C)c1O
Liver [2]
  IC50: 250 µM

## CC(C)Cc1ccc(C(C)C(=O)O)cc1 (stereo unspecified) [IBUPROFEN]
Rattus norvegicus [1]
  Activity: 36%

## CCOC(=O)C(CS)NC(=O)C1(C)CCc2c(C)c(O)c(C)c(C)c2O1 (stereo unspecified)
Rattus norvegicus [6]
  Activity: 72.3%
Rattus norvegicus [7]
  Activity: 78%
Liver [8]
  Ratio IC50: 10
Rattus norvegicus [9]
  Activity: 73%
Rattus norvegicus [10]
  Activity: 64%
Rattus norvegicus [1]
  Activity: 39%
Liver [2]
  IC50: 3 µM
[3]
  Activity: 61%
Rattus norvegicus [11]
  Activity: 70%
[4]
  Activity: 93%
[5]
  Activity: 91%

## Cc1c(C)c2c(c(C)c1O)CCC(C)(C(=O)O)O2 (stereo unspecified) [TROLOX]
Liver [2]
  IC50: 25 µM

## CC(C)(C)c1cc(C(=O)NCCS)cc(C(C)(C)C)c1O
Lipoxygenase
  IC50: 121 µM
Rattus norvegicus [1]
  Activity: 87%
Liver [2]
  IC50: 45 µM
[3]
  Activity: 20%
[4]
  Activity: 85%
[5]
  Activity: 45%

## Cc1c(C)c2c(c(C)c1O)CCC(C)(C(=O)NCCS)O2 (stereo unspecified)
Rattus norvegicus [6]
  Activity: 47.3%
Rattus norvegicus [7]
  Activity: 70%
Liver [8]
  Ratio IC50: 10
Rattus norvegicus [9]
  Activity: 67.1%
Rattus norvegicus [10]
  Activity: 15%
Rattus norvegicus [1]
  Activity: 67%
Liver [2]
  IC50: 1.6 µM
[3]
  Activity: 61%
Rattus norvegicus [11]
  Activity: 26%
[4]
  Activity: 93%
[5]
  Activity: 92%

## CCOC(=O)C(CSSCC(NC(=O)c1cc(C(C)(C)C)c(O)c(C(C)(C)C)c1)C(=O)OCC)NC(=O)c1cc(C(C)(C)C)c(O)c(C(C)(C)C)c1 (stereo unspecified)
[12]
  Activity: Active
Rattus norvegicus [1]
  Activity: 36%
Liver [13]
  inhibition: inactive

## CCOC(=O)C(CS)NC(=O)/C=C/c1ccccc1 (stereo unspecified)
Rattus norvegicus [1]
  Activity: 35%
Liver [13]
  inhibition: inactive
[3]
  Activity: 27%
[4]
  Activity: 86%
[5]
  Activity: 42%

## O=C(/C=C/c1ccccc1)NCCSSCCNC(=O)/C=C/c1ccccc1
[12]
  Activity: Active
Rattus norvegicus [1]
  Activity: 42%
Liver [13]
  inhibition: inactive

## CCOC(=O)C(CSSCC(NC(=O)/C=C/c1ccccc1)C(=O)OCC)NC(=O)/C=C/c1ccccc1 (stereo unspecified)
[12]
  Activity: Active
Liver [13]
  inhibition: inactive

## NCCS [CYSTEAMINE]
Mus musculus
  Activity: 15%

## CCOC(=O)[C@@H](N)CS
Mus musculus
  Activity: 25%

## CCOC(=O)C(CS)NC(=O)c1cc(C(C)(C)C)c(O)c(C(C)(C)C)c1 (stereo unspecified)
Lipoxygenase
  IC50: 67 µM
Rattus norvegicus [1]
  Activity: 59%
Liver [2]
  IC50: 200 µM
[3]
  Activity: 23%
[4]
  Activity: 85%
[5]
  Activity: 46%

## O=C(/C=C/c1ccccc1)NCCS
Rattus norvegicus [1]
  Activity: 38%
Liver [13]
  inhibition: inactive
[3]
  Activity: 31%
[4]
  Activity: 86%
[5]
  Activity: 59%

## CC(C)(C)c1cc(C(=O)NCCSSCCNC(=O)c2cc(C(C)(C)C)c(O)c(C(C)(C)C)c2)cc(C(C)(C)C)c1O
[12]
  Activity: Active
Liver [13]
  inhibition: inactive

## CC(C)(C)c1cc(/C=C/C(=O)NCCS)cc(C(C)(C)C)c1O
Lipoxygenase
  IC50: 160 µM
Rattus norvegicus [1]
  Activity: 67%
Liver [2]
  IC50: 30 µM
[3]
  Activity: 34%
[4]
  Activity: 92%
[5]
  Activity: 60%
